Measurements published in patent US10889609B2, “Mannitol-based amphipathic compound and use thereof” (Industry-University Cooperation Foundation Hanyang …, priority 2015, dated 2021).
Values joined by “and” are separate entries in the source; they are usually repeats but may differ in a detail not shown here. Identical values can stand only once.

Columns and labels:
boron transporter (Bor1) = target: T1, boron transporter (Bor1) (Arabidopsis thaliana, UniProt Q8VYR7); assay: Structural stability and extraction of Bor1 by heat fluorescence size exclusion chromatography (hFSEC); conditions: for level of Bor1 protein aggregation after heat treatment: 40° C. for 10 minutes, FIG. 18
T1 construct: made in house; host or cells: Saccharomyces cerevisiae FGY217
T1 sequence (Q8VYR7 whole entry): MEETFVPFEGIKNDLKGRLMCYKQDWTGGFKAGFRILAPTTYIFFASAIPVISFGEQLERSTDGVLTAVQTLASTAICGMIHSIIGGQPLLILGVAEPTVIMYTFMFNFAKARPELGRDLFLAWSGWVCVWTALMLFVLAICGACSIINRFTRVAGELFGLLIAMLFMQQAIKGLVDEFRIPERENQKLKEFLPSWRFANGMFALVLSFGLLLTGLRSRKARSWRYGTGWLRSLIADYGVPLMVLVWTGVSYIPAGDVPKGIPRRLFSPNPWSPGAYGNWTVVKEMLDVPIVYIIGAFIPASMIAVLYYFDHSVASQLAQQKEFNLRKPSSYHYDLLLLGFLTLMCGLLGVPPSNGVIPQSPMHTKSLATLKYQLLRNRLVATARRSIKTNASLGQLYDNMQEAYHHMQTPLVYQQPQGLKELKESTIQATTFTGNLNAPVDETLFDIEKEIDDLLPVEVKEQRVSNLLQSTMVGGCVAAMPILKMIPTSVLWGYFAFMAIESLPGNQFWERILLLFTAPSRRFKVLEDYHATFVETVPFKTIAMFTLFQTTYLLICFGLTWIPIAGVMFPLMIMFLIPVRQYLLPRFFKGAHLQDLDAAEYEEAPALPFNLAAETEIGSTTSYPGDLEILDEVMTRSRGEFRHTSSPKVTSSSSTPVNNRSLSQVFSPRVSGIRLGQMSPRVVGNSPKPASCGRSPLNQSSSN
Method: An experiment for measuring the structural stability of a boron transporter (Bor1) by the MNAs was performed. The structural stability of Bor1 was measured using heat fluorescence size exclusion chromatography (hFSEC), and the concentrations of the MNAs and DDM were CMC plus 0.04% by weight. Specifically, Bor1 of Arabidopsis thaliana was expressed in Saccharomyces cerevisiae FGY217 cells as a fusion protein having a C-terminal GFP-His tag. The cells were grown in a -URA medium supplemented with 0.1% glucose. Expression of proteins was induced by adding 2% galactose, and the cells were then cultured at 20° C. for 18 hours. Here, the cell culture was carried out according to the method described in the article by D. Drew et al. (Nat. Protoc. 2008, 3, 784-798.). The cells were collected to prepare membranes, and the cell collection was carried out according to the method described in the article by J. Leung et al. (Protein Expr. Purif. 2010, 72, 139-146.). The membranes including the Bor1-GFP fusion protein were diluted with phosphate-buffered saline (PBS, pH 7.4) until the final concentration of the total proteins reached 2.8 mg/mL. In this case, 1% by weight of DDM or 1% by weight of MNA (MNA-1, MNA-2, MNA-3, MNA-4, MNA-5, MNA-6, or MNA-7) was added to the PBS. Samples were incubated for an hour while shaking at 4° C., and insoluble materials were then removed by centrifugation at 14,000 g and 4° C. for an hour. The supernatant including the dissolved protein samples was heated at 40° C. for 10 minutes, and the strongly aggregated proteins were removed by centrifugation at 14,000 g and 4° C. for 10 minutes. 200 μL of the supernatant of the samples was injected into a Superose 6 10/300 column equilibrated with 20 mM Tris (pH 7.5), 150 mM NaCl, and 0.03% DDM. Each of elution fractions was collected in 200 μL fractions at a retention volume of 6.4 mL (e.g., 6.4 mL after elusion) in a clear bottom 96-well plate. The GFP fluorescence of each of the fractions was measured at an excitation wavelength of 470 nm and an emission wavelength of 512 nm.

[1] = Critical micellar concentration (CMC) by hydrophobic fluorescence stain diphenylhexatriene (DPH); assay type: physicochemical
Source text: A method of measuring the CMC is not particularly limited, but the methods widely known in the related art may be used. For example, the CMC may be measured by a fluorescence detection method using diphenylhexatriene (DPH).
(§1) To determine characteristics of the MNAs of Preparative Example 1 to 10 synthesized according to the synthesis method of Example 1, the molecular weights (M.W.) and critical micellar concentrations (CMCs) of the MNAs and the hydrodynamic radii (Rh) of the formed micelles were measured.
(§2) Specifically, the critical micellar concentration (CMC) was measured using a hydrophobic fluorescence stain (diphenylhexatriene (DPH)), and the hydrodynamic radii (Rh) of the micelles formed by each of the preparations were measured by a dynamic light scattering (DLS) experiment. The measured results were compared to those of DDM that is a conventional amphipathic molecule (a detergent), and are listed in Table 1.

[2] = target: T2, human β2 adrenergic receptor (β2AR) (Homo sapiens, UniProt P07550); assay: mBBr-β2AR bimane spectra at detergent concentration below CMC; assay type: biochemical; conditions: detergent diluted to a fiftieth of its CMC, compared to DDM, FIG. 21
T2 construct: made in house
T2 sequence (P07550 whole entry): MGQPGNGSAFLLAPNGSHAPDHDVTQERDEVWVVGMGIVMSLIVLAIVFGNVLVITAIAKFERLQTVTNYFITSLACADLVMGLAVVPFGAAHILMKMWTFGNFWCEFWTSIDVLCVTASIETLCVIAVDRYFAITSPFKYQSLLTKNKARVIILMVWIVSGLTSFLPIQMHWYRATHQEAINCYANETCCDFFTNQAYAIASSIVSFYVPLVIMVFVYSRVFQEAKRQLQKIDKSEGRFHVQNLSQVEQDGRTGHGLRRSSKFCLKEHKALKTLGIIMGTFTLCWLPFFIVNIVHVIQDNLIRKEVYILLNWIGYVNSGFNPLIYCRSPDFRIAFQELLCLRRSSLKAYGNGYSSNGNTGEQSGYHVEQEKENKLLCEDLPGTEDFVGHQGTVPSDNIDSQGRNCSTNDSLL
Method: Experiments for comparing the structural changes of the β2AR protein by the MNAs and DDM at a concentration below CMCs of the amphipathic molecules were performed.
Specifically, 0.5 μL of a non-ligand mBBr-labeled receptor dissolved at 50 μNI in a 20×CMC concentration of MNA-5, MNA-6, or MNA-7 was diluted with 500 μL of an NH buffer (20 mM HEPES pH 7.5, and 100 mM NaCl). The proteins were cultured for 30 minutes, and the bimane spectra thereof were measured. The receptor dissolved in 0.1% DDM was diluted with the NH buffer, and used as the control. Data was presented as an average of three separate experiments performed in triplicate.

[3] = target: T2, human β2 adrenergic receptor (β2AR); assay: Negative-stain electron microscopy (EM) of β2AR dissolved in detergent; conditions: negative staining, compared to DDM, FIG. 24
Method: A β2AR protein analysis test was performed for DDM, MNA-6, or MNA-7 using an electron microscope.
Specifically, samples were prepared using the conventional negative staining protocol disclosed in the article by M. Ohi et al. (Biol. Proced. Online 2004, 6, 23-34.). In summary, 3 μL of β2AR dissolved in DDM, MNA-6, or MNA-7 was pipetted onto a glow-discharged carbon-coated grid, and stained with 1% (w/v) uranyl formate. Thereafter, the β2AR was imaged at room temperature by running a Morgagni 268(D) transmission electron microscope (FEI Company) at 100 kV. The images were recorded at 30,416×calibrated magnification using an Orius SC200W CCD camera (Gatan Inc.).

[4] = Hydrodynamic radius and size distribution of micelles by dynamic light scattering (DLS); assay type: physicochemical
Source text: A method of measuring the radius of the micelle is not particularly limited, but the methods widely known in the related art may be used. For example, the radius of the micelle may be measured using a dynamic light scattering (DLS) experiment.
as §1, §2
Meanwhile, the size distributions of the micelles formed by the MNAs were measured using DLS, and the measurement results are shown in FIG. 17. The MNAs were used at a content of 1.0% by weight.

[5] = target: T2, human β2 adrenergic receptor (β2AR); assay: Size exclusion chromatography (SEC) of β2AR protein-detergent complexes (PDCs); conditions: Superdex-200, FIG. 23
Method: An SEC analysis was performed to determine the size of the protein-amphipathic molecule complex (i.e., a protein-detergent complex (PDC)) formed by DDM, MNA-6, or MNA-7.
Specifically, the β2AR dissolved in DDM, MNA-6 or MNA-7 was used as a test sample in the same manner as used in Example 5-3. The sample was loaded onto a Superdex-200 10/300 GL column (GE Healthcare) at 0.5 ml/min, an innate tryptophane fluorescence signal was measured at an excitation wavelength of 295 nm and an emission wavelength of 345 nm. A running buffer includes 20 mM HEPES pH 7.5, 100 mM NaCl, and 20×CMC MNA-6 or MNA-7. A difference in retention volume of the protein samples means a difference in size of the protein-detergent complexes (PDCs) formed in the presence of the amphipathic molecules.

SMILES | level of Bor1 protein aggregation after heat treatment (boron transporter (Bor1); hFSEC) | CMC value [1] [µM] | CMC ([1]; aqueous solution) [mM] | stability of β2AR [2] | EM image background of dissolved β2AR [3] | Rh (nm), hydrodynamic radius of micelles [4] | size of β2AR protein-detergent complexes (PDCs) [5] | Bor1 extraction efficiency (boron transporter (Bor1); 1% by weight detergent, membranes with Bor1-GFP) [%] | CMC (% by weight) ([1]; aqueous solution) | effect on stabilization of Bor1 (boron transporter (Bor1); hFSEC, aggregation level and size of target protein peak)
CCCCCCCCCCCCCCO[C@H]([C@@H](OCCCCCCCCCCCCCC)[C@H](CO[C@@H]1OC(CO)[C@@H](O)C(O)C1O)O[C@@H]1OC(CO)[C@@H](O)C(O)C1O)[C@H](CO[C@@H]1OC(CO)[C@@H](O)C(O)C1O)O[C@@H]1OC(CO)[C@@H](O)C(O)C1O (some centres unmarked) [MNA-7] | lower level of Borl aggregation than DDM | 1 | ~0.001 | secured for a prolonged period of time | uniform background clutter that were relatively smaller in quantity | 3.3 nm and 3.3 ± 0.08 nm | smaller in size compared to those formed by DDM | – | – | –
CCCCCCCCCCCCCCCCO[C@H]([C@@H](OCCCCCCCCCCCCCCCC)[C@H](CO[C@@H]1OC(CO)[C@@H](O)C(O)C1O)O[C@@H]1OC(CO)[C@@H](O)C(O)C1O)[C@H](CO[C@@H]1OC(CO)[C@@H](O)C(O)C1O)O[C@@H]1OC(CO)[C@@H](O)C(O)C1O (some centres unmarked) [MNA-9] | – | 1 | ~0.001 | – | – | 3.8 nm and 3.8 ± 0.1 nm | – | – | – | –
CCCCCCCCCCCCCCCO[C@H]([C@@H](OCCCCCCCCCCCCCCC)[C@H](CO[C@@H]1OC(CO)[C@@H](O)C(O)C1O)O[C@@H]1OC(CO)[C@@H](O)C(O)C1O)[C@H](CO[C@@H]1OC(CO)[C@@H](O)C(O)C1O)O[C@@H]1OC(CO)[C@@H](O)C(O)C1O (some centres unmarked) [MNA-8] | – | – | ~0.003 | – | – | 3.5 nm and 3.5 ± 0.1 nm | – | – | – | –
CCCCCCCCCCCCO[C@@H]1O[C@H](CO)[C@@H](O[C@H]2O[C@H](CO)[C@@H](O)[C@H](O)[C@H]2O)[C@H](O)[C@H]1O [DDM, n-dodecyl-β-D-maltopyranoside, reference compound] | significant level of protein aggregation | 170 | ~0.17 | – | – | 3.4 nm and 3.4 ± 0.03 nm | – | 80 | Approximately 0.0087 % by weight | –
CCCCCCCCCO[C@H]([C@@H](OCCCCCCCCC)[C@H](CO[C@@H]1OC(CO)[C@@H](O)C(O)C1O)O[C@@H]1OC(CO)[C@@H](O)C(O)C1O)[C@H](CO[C@@H]1OC(CO)[C@@H](O)C(O)C1O)O[C@@H]1OC(CO)[C@@H](O)C(O)C1O (some centres unmarked) [MNA-2] | – | – | ~0.05 | – | – | 2.5 nm and 2.5 ± 0.05 nm | – | – | – | –
CCCCCCCCCCCCCO[C@H]([C@@H](OCCCCCCCCCCCCC)[C@H](CO[C@@H]1OC(CO)[C@@H](O)C(O)C1O)O[C@@H]1OC(CO)[C@@H](O)C(O)C1O)[C@H](CO[C@@H]1OC(CO)[C@@H](O)C(O)C1O)O[C@@H]1OC(CO)[C@@H](O)C(O)C1O (some centres unmarked) [MNA-6] | lower level of Bor1 aggregation than DDM | 2 | ~0.002 | secured for a prolonged period of time | uniform background clutter that were relatively smaller in quantity | 3.3 nm and 3.3 ± 0.04 nm | smaller in size compared to those formed by DDM | – | – | best effect on stabilization of the Bor1
CCCCCCCCO[C@H]([C@@H](OCCCCCCCC)[C@H](CO[C@@H]1OC(CO)[C@@H](O)C(O)C1O)O[C@@H]1OC(CO)[C@@H](O)C(O)C1O)[C@H](CO[C@@H]1OC(CO)[C@@H](O)C(O)C1O)O[C@@H]1OC(CO)[C@@H](O)C(O)C1O (some centres unmarked) [MNA-1] | – | – | ~0.15 | – | – | 2.3 nm and 2.3 ± 0.13 nm | – | – | – | –
CCCCCCCCCCCCCCCCCO[C@H]([C@@H](OCCCCCCCCCCCCCCCCC)[C@H](CO[C@@H]1OC(CO)[C@@H](O)C(O)C1O)O[C@@H]1OC(CO)[C@@H](O)C(O)C1O)[C@H](CO[C@@H]1OC(CO)[C@@H](O)C(O)C1O)O[C@@H]1OC(CO)[C@@H](O)C(O)C1O (some centres unmarked) [MNA-10] | – | 1 | ~0.001 | – | – | 4.1 nm and 4.1 ± 0.2 nm | – | – | – | –
CCCCCCCCCCO[C@H]([C@@H](OCCCCCCCCCC)[C@H](CO[C@@H]1OC(CO)[C@@H](O)C(O)C1O)O[C@@H]1OC(CO)[C@@H](O)C(O)C1O)[C@H](CO[C@@H]1OC(CO)[C@@H](O)C(O)C1O)O[C@@H]1OC(CO)[C@@H](O)C(O)C1O (some centres unmarked) [MNA-3] | – | – | ~0.015 | – | – | 2.7 nm and 2.7 ± 0.04 nm | – | – | – | –
CCCCCCCCCCCO[C@H]([C@@H](OCCCCCCCCCCC)[C@H](CO[C@@H]1OC(CO)[C@@H](O)C(O)C1O)O[C@@H]1OC(CO)[C@@H](O)C(O)C1O)[C@H](CO[C@@H]1OC(CO)[C@@H](O)C(O)C1O)O[C@@H]1OC(CO)[C@@H](O)C(O)C1O (some centres unmarked) [MNA-4] | level of protein aggregation similar to DDM | – | ~0.006 | – | – | 2.9 nm and 2.9 ± 0.12 nm | – | – | – | –
